Experimental data taken from article PMC3117834 (PLoS ONE, 2011).
Blank lines part the entries; values can stand above or below the compound they belong to.

Assays:
Assay type in all cases: biochemical
Hog1 [1] = target: T1, Hog1 (Saccharomyces cerevisiae, UniProt P32485); assay: […] kinase assay, Sic1 phosphorylation, autoradiography
T1 construct: pGEX-4T1 E. coli version also made
T1 sequence (P32485 2-435): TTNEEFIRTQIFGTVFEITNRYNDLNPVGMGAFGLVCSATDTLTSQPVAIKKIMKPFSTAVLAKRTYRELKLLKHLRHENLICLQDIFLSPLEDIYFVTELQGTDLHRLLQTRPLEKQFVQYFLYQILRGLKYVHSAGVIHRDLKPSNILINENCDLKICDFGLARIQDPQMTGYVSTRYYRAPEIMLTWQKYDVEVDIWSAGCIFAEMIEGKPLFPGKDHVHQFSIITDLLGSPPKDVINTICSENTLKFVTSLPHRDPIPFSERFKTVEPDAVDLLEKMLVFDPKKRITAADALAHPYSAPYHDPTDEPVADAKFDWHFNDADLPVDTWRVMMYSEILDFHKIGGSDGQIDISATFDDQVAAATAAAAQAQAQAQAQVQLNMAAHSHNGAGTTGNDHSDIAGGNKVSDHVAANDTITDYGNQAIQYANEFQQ

Pbs2 [2] = target: T2, Pbs2 (Saccharomyces cerevisiae, UniProt P08018, M435A); assay: […] kinase assay, Hog1 phosphorylation, autoradiography
T2 construct: GST fusion (pGEX-4T1) from E. coli DH5alpha
T2 sequence (P08018 1-668 M435A): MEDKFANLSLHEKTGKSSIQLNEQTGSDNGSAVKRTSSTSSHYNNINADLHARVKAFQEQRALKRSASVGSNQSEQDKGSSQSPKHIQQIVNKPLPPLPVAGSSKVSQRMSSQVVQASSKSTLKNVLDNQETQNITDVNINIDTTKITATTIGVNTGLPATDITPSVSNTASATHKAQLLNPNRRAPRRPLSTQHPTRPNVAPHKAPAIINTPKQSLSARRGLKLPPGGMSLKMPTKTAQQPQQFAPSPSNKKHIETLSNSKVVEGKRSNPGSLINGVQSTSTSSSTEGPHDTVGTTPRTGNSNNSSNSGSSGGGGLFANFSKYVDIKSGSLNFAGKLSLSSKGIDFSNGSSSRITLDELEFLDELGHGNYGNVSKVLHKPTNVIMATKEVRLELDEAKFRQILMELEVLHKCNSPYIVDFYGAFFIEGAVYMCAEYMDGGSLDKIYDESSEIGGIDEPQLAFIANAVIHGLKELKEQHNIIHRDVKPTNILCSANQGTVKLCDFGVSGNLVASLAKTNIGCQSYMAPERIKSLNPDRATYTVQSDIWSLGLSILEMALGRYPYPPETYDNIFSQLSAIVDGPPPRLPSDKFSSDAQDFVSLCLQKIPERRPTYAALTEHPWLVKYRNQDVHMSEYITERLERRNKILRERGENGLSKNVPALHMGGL

Hog1 [3] = target: T3, Hog1 (Saccharomyces cerevisiae, UniProt P32485, T100G); assay: […] kinase assay, Sic1 phosphorylation, autoradiography
T3 construct: pGEX-4T1 E. coli version also made
T3 sequence (P32485 2-435 T100G): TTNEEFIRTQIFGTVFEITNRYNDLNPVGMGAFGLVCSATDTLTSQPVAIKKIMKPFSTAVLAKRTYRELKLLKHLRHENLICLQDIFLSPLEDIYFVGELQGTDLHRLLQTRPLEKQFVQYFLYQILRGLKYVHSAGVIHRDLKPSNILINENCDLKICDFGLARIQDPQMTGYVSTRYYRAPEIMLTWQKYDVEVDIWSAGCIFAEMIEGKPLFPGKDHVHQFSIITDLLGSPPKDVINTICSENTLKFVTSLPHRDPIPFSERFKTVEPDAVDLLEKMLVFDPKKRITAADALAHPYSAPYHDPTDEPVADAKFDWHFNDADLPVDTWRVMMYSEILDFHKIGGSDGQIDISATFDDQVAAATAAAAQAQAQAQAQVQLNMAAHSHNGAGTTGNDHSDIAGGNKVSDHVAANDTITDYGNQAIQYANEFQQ

Hog1 [4] = target: T3, Hog1; assay: as above; remark: listed apart in the source
Pbs2 [5] = target: T2, Pbs2; assay: […] kinase assay, Hog1 phosphorylation, autoradiography; details: [gamma-32P]-phenethyl-ATP as phosphodonor; GST-Hog1 substrate; pH 8.0; 30 °C
Hog1 [6] = target: T3, Hog1; assay: […] kinase assay, Sic1 phosphorylation, autoradiography; details: in vitro-activated Hog1as

IC50 (Pbs2 [2]): 4.02 ± 0.26 nM
IC50 (Hog1 [3]): 37 ± 2.72 nM
SMILES: CC(C)n1nc(C#Cc2ccccc2)c2c(N)ncnc21 [6a, 1-Isopropyl-3-(phenylethynyl)-1H-pyrazolo[3,4-d]pyrimidin-4-amine]

inhibition at 5 µM (Hog1 [4]): > 89%
SMILES: CC(C)n1nc(C#Cc2ccc(F)cc2)c2c(N)ncnc21 [6b, 3-((4-fluorophenyl)ethynyl)-1-isopropyl-1H-pyrazolo[3,4-d]pyrimidin-4-amine]
% inhibition at 5 μM (Pbs2 [5]): Pbs2as was inhibited by all the compounds in vitro

inhibition at 5 µM (Hog1 [4]): > 89%
SMILES: CC(C)n1nc(C#Cc2ccc(Cl)cc2)c2c(N)ncnc21 [6c, 3-((4-chlorophenyl)ethynyl)-1-isopropyl-1H-pyrazolo[3,4-d]pyrimidin-4-amine]

More lines, now with the values behind:

SMILES: CC(C)n1nc(-c2ccc(F)cc2)c2c(N)ncnc21 [5b, 3-(4-Fluorophenyl)-1-isopropyl-1H-pyrazolo[3,4-d]pyrimidin-4-amine]
inhibition at 5 µM (Hog1 [1]): 94%

SMILES: Nc1ncnc2c1c(C#Cc1ccccc1)nn2CCO [7a, 2-(4-amino-3-(phenylethynyl)-1H-pyrazolo[3,4-d]pyrimidin-1-yl)etanol]
32P kinase assay, Sic1 phosphorylation, autoradiography (Hog1 [6]): in vitro these compounds were able to inhibit Hog1as as efficiently as 6a

SMILES: Nc1ncnc2c1c(C#Cc1ccccc1)nn2CC(O)CO (stereo not shown) [7b, 3-(4-amino-3-(phenylethynyl)-1H-pyrazolo[3,4-d]pyrimidin-1-yl)propane-1,2-diol]
32P kinase assay, Sic1 phosphorylation, autoradiography (Hog1 [6]): in vitro these compounds were able to inhibit Hog1as as efficiently as 6a

SMILES: CC(C)(C)n1nc(Cc2cccc3ccccc23)c2c(N)ncnc21 [compound 9, 1-NM-PP1]
IC50 (Pbs2 [2]): 7.54 ± 0.25 nM
IC50 (Hog1 [3]): 9.47 ± 0.38 nM
